The target in assay [1] is T1, Full-length (FL)-PRMT5-MEP50 enzyme complex (Homo sapiens, UniProt O14744).
T1 construct: Full-length (FL)-PRMT5-MEP50 enzyme complex (recombinant proteins from baculovirus-transfected Sf21 cells: FL-PRMT5; MW=73837 kDa and FL-MEP50; MW=38614); made in house; host or cells: baculovirus-transfected Sf21 cells
The assay is described as follows: PRMT5-MEP50 Enzyme Methylation Assay (Version A). The format is biochemical. The method, boiled down:
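Compound was pre-incubated with enzyme for 60 min, then reacted 150 min at 37° C. at final 1.0 nM PRMT5-MEP50, 15 μM SAM and 75 nM biotinylated H4R3(Me1) peptide, in 50 mM Bicine pH 8.0 with 1% DMSO. SAMDI mass-spectrometric readout of Me1→Me2 conversion. EC50 from 4- or 7-parameter regression.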

Assay [2] deals with symmetric dimethylation of arginine (SDMA) of PRMT5 substrates in MCF-7 cells. The assay is described as follows: PRMT5 Cell Target Engagement (TE) Assay. The class given is cell-based. The conditions noted are these: Homo sapiens, MCF7, 72 h, 3 days treatment, SDMA high content imaging. The method, boiled down: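 Readout is single-cell nuclear symmetric-dimethylarginine immunofluorescence (Alexa488), normalized to DMSO-treated cells. Compounds were applied to MCF-7 cells for 3 days at 37 °C, top concentration 10000 nM in 1:3 steps over ten points; curves fitted with 4-parameter robust fit.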

[3] abbreviates: second value of 7 parameter biphasic fit, read-out: Enzyme Methylation Assay Version A (EC50 2).
Where [4] appears, read: single EC50 = 4 parameter single site sigmoidal fit, EC50 1 = first value of 7 parameter biphasic fit, read-out: Enzyme Methylation Assay Version A (EC50 or EC50 1).

Like-named read-outs stand apart in the source and are kept apart here.

T1 sequence (O14744 whole entry): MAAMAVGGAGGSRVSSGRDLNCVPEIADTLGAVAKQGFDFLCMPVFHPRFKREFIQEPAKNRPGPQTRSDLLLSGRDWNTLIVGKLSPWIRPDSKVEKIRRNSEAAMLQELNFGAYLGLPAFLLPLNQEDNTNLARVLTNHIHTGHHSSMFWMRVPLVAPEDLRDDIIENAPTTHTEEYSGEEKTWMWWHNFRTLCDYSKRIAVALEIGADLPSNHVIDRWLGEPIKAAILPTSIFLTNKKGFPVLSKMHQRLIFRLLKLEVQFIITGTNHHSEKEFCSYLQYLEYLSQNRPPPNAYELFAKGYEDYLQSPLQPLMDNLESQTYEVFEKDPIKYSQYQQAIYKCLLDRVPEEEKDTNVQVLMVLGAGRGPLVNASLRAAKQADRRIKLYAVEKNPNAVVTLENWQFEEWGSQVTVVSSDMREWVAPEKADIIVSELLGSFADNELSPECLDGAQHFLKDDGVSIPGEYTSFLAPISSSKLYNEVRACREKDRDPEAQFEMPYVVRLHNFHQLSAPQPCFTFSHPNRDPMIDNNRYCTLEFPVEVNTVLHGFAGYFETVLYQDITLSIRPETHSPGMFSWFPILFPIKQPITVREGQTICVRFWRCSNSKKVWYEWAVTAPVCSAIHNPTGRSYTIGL
T1 sequence (Q9BQA1 whole entry partner): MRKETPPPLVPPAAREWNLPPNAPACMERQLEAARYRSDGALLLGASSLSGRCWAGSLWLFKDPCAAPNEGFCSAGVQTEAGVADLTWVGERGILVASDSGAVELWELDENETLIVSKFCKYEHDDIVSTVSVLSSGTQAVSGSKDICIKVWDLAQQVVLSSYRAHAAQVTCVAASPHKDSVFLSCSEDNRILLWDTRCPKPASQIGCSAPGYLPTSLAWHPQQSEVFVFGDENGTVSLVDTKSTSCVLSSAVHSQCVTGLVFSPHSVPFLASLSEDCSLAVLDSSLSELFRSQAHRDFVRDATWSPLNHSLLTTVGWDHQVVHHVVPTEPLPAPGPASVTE

Consider `O=C(c1cn2ccc(Cl)c(I)c2n1)N1CC[C@]2(Cc3ccccc3CN2)[C@H](O)C1` [Example 216, (7-chloro-8-iodoimidazo[1,2-a]pyridin-2-yl)[(3R,3′R)-3′-hydroxy-1,4-dihydro-1′H,2H-spiro[isoquinoline-3,4′-piperidin]-1′-yl]methanone], for which the EC50 (in general, the concentration at which the effect is half-maximal) was 2.54 µM in assay [1] (setting [3]), 0.0263 µM in assay [1] (setting [4]) and 0.711 µM in assay [2].

On to `O=C(c1cn2cc(Br)cc(F)c2n1)N1CC[C@]2(Cc3ccccc3CN2)[C@H](O)C1` [Example 217, (6-bromo-8-fluoroimidazo[1,2-a]pyridin-2-yl)[(3R,3′R)-3′-hydroxy-1,4-dihydro-1′H,2H-spiro[isoquinoline-3,4′-piperidin]-1′-yl]methanone], for which the EC50 in assay [1] (setting [3]) was 0.0403 µM; in assay [1] (setting [4]) it was 0.00073 µM; in assay [2] it was 0.0113 µM.

As for `O=C(c1cn2cc(Br)cc(Br)c2n1)N1CC[C@]2(Cc3ccccc3CN2)[C@H](O)C1` [Example 218, (6,8-dibromoimidazo[1,2-a]pyridin-2-yl)[(3R,3′R)-3′-hydroxy-1,4-dihydro-1′H,2H-spiro[isoquinoline-3,4′-piperidin]-1′-yl]methanone], the EC50 in assay [1] (setting [4]) is 0.00197 µM; in assay [2], 0.00407 µM.

For `Cc1ccc(C(=O)N2CC[C@]3(Cc4ccccc4CN3)[C@H](O)C2)c(O)n1` [Example 219, 3-{[(3R,3′R)-3′-hydroxy-1,4-dihydro-1′H,2H-spiro[isoquinoline-3,4′-piperidin]-1′-yl]carbonyl}-6-methyl-2(1H)-pyridinone], the EC50 came to 17.4 µM in assay [1] (setting [3]), 0.204 µM in assay [1] (setting [4]) and 4.16 µM in assay [2].

Turning to `Cc1ccc(C(=O)N2CC[C@]3(Cc4ccccc4CN3)[C@H](O)C2)c(C)n1` [Example 220, (2,6-dimethyl-3-pyridinyl)[(3R,3′R)-3′-hydroxy-1,4-dihydro-1′H,2H-spiro[isoquinoline-3,4′-piperidin]-1′-yl]methanone], the EC50 in assay [1] (setting [3]) stood at 2.6 µM; in assay [1] (setting [4]), 0.0832 µM; in assay [2] it was 2.1 µM.

`Cc1ccc(C(=O)N2CC[C@]3(Cc4ccccc4CN3)[C@H](O)C2)cn1` [Example 221, [(3R,3′R)-3′-hydroxy-1,4-dihydro-1′H,2H-spiro[isoquinoline-3,4′-piperidin]-1′-yl](6-methyl-3-pyridinyl)methanone]: the results for the EC50 in assay [1] (setting [3]), in assay [1] (setting [4]) and in assay [2] were 3.51 µM, 0.0437 µM and 2.54 µM, respectively.

Consider `O=C(c1cn(C2CC2)cn1)N1CC[C@]2(Cc3ccccc3CN2)[C@H](O)C1` [Example 222, (1-cyclopropyl-1H-imidazol-4-yl)[(3R,3′R)-3′-hydroxy-1,4-dihydro-1′H,2H-spiro[isoquinoline-3,4′-piperidin]-1′-yl]methanone], for which the 50% effective concentration (EC50) in assay [1] (setting [3]) is 25.4 µM; in assay [1] (setting [4]) it was 0.432 µM; in assay [2], not below 10 µM.

Consider `Cc1cn2cc(C(=O)N3CC[C@]4(Cc5ccccc5CN4)[C@H](O)C3)nc2s1` [Example 223, [(3R,3′R)-3′-hydroxy-1,4-dihydro-1′H,2H-spiro[isoquinoline-3,4′-piperidin]-1′-yl](2-methylimidazo[2,1-b][1,3]thiazol-6-yl)methanone], for which the EC50 turned out to be 0.631 µM in assay [1] (setting [3]), 0.0221 µM in assay [1] (setting [4]) and 0.445 µM in assay [2].

Turning to `O=C(c1cn(C(F)F)cn1)N1CC[C@]2(Cc3ccccc3CN2)[C@H](O)C1` [Example 224, [1-(difluoromethyl)-1H-imidazol-4-yl][(3R,3′R)-3′-hydroxy-1,4-dihydro-1′H,2H-spiro[isoquinoline-3,4′-piperidin]-1′-yl]methanone], the half-maximal effective concentration (EC50) in assay [1] (setting [3]) was 66.8 µM; in assay [1] (setting [4]), 3.51 µM; in assay [2] it was not below 10 µM.

With `Cc1ccc2c(c1)CN[C@@]1(CCN(C(=O)c3cn4cc(C5CC5)cnc4n3)C[C@H]1O)C2` [Example 228], the results for the EC50 in assay [1] (setting [4]) and in assay [2] were 0.144 µM and 0.254 µM, respectively.

On to `COCCN(C)c1cc([C@@H](C)OC)c2nc(C(=O)N3CC[C@]4(Cc5ccccc5CN4)[C@H](O)C3)cn2c1` [Example 229, [(3R,3′R)-3′-hydroxy-1,4-dihydro-1′H,2H-spiro[isoquinoline-3,4′-piperidin]-1′-yl]{8-[(1R)-1-methoxyethyl]-6-[(2-methoxyethyl)(methyl)amino]imidazo[1,2-a]pyridin-2-yl}methanone], for which the EC50 in assay [1] (setting [3]) was found to be 0.234 µM; in assay [1] (setting [4]), 0.000602 µM; in assay [2], 0.0226 µM.

Take `CO[C@H](C)c1cc(N2CCC(n3ccnc3)C2)cn2cc(C(=O)N3CC[C@]4(Cc5ccccc5CN4)[C@H](O)C3)nc12` (stereo partly drawn) [Example 230, [(3R,3′R)-3′-hydroxy-1,4-dihydro-1′H,2H-spiro[isoquinoline-3,4′-piperidin]-1′-yl]{6-[3-(1H-imidazol-1-yl)-1-pyrrolidinyl]-8-[(1R)-1-methoxyethyl]imidazo[1,2-a]pyridin-2-yl}methanone]: the figures for the 50% effective concentration (EC50) in assay [1] (setting [4]) and in assay [2] were 0.00538 µM and 0.124 µM, respectively.

With `CO[C@H](C)c1cc(N2Cc3cnn(C)c3C2)cn2cc(C(=O)N3CC[C@]4(Cc5ccccc5CN4)[C@H](O)C3)nc12` [Example 231, [(3R,3′R)-3′-hydroxy-1,4-dihydro-1′H,2H-spiro[isoquinoline-3,4′-piperidin]-1′-yl]{8-[(1R)-1-methoxyethyl]-6-(1-methyl-4,6-dihydropyrrolo[3,4-c]pyrazol-5(1H)-yl)imidazo[1,2-a]pyridin-2-yl}methanone], the results for the EC50 in assay [1] (setting [4]) and in assay [2] were 0.0113 µM and 0.0664 µM, respectively.

Regarding `CO[C@H](C)c1cc(N2CCn3nccc32)cn2cc(C(=O)N3CC[C@]4(Cc5ccccc5CN4)[C@H](O)C3)nc12` [Example 232, {6-(2,3-dihydro-1H-imidazo[1,2-b]pyrazol-1-yl)-8-[(1R)-1-methoxyethyl]imidazo[1,2-a]pyridin-2-yl}[(3R,3′R)-3′-hydroxy-1,4-dihydro-1′H,2H-spiro[isoquinoline-3,4′-piperidin]-1′-yl]methanone], the figures for the EC50 in assay [1] (setting [4]) and in assay [2] were 0.005 µM and 0.0673 µM, respectively.

In the case of `CO[C@H](C)c1cc(N(C)CCn2ccnc2C)cn2cc(C(=O)N3CC[C@]4(Cc5ccccc5CN4)[C@H](O)C3)nc12` [Example 233, [(3R,3′R)-3′-hydroxy-1,4-dihydro-1′H,2H-spiro[isoquinoline-3,4′-piperidin]-1′-yl](8-[(1R)-1-methoxyethyl]-6-{methyl[2-(2-methyl-1H-imidazol-1-yl)ethyl]amino}imidazo[1,2-a]pyridin-2-yl)methanone], the EC50 in assay [1] (setting [4]) came out at 0.00369 µM; in assay [2] it was 0.0762 µM.

In the case of `CO[C@H](C)c1cc(N(C)Cc2nonc2C)cn2cc(C(=O)N3CC[C@]4(Cc5ccccc5CN4)[C@H](O)C3)nc12` [Example 234, [(3R,3′R)-3′-hydroxy-1,4-dihydro-1′H,2H-spiro[isoquinoline-3,4′-piperidin]-1′-yl](8-[(1R)-1-methoxyethyl]-6-{methyl[(4-methyl-1,2,5-oxadiazol-3-yl)methyl]amino}imidazo[1,2-a]pyridin-2-yl)methanone], the EC50 in assay [1] (setting [4]) is 0.00682 µM; in assay [2], 0.0238 µM.

For the compound `CO[C@H](C)c1cc(N2Cc3ncsc3C2)cn2cc(C(=O)N3CC[C@]4(Cc5ccccc5CN4)[C@H](O)C3)nc12` [Example 235, {6-(4,6-dihydro-5H-pyrrolo[3,4-d][1,3]thiazol-5-yl)-8-[(1R)-1-methoxyethyl]imidazo[1,2-a]pyridin-2-yl}[(3R,3′R)-3′-hydroxy-1,4-dihydro-1′H,2H-spiro[isoquinoline-3,4′-piperidin]-1′-yl]methanone], the figures for the EC50 in assay [1] (setting [4]) and in assay [2] were 0.0206 µM and 0.0627 µM, respectively.

Regarding `CO[C@H](C)c1cc(N2CC3(CCCO3)C2)cn2cc(C(=O)N3CC[C@]4(Cc5ccccc5CN4)[C@H](O)C3)nc12` [Example 236, [(3R,3′R)-3′-hydroxy-1,4-dihydro-1′H,2H-spiro[isoquinoline-3,4′-piperidin]-1′-yl]{8-[(1R)-1-methoxyethyl]-6-(5-oxa-2-azaspiro[3.4]oct-2-yl)imidazo[1,2-a]pyridin-2-yl}methanone], the EC50 in assay [1] (setting [4]) amounted to 0.00709 µM; in assay [2] it was 0.0206 µM.

With `CO[C@H](C)c1cccn2cc(C(=O)N3CC[C@]4(Cc5ccccc5CN4)[C@H](O)C3)nc12` [Example 237, [(3R,3′R)-3′-hydroxy-1,4-dihydro-1′H,2H-spiro[isoquinoline-3,4′-piperidin]-1′-yl]{8-[(1R)-1-methoxyethyl]imidazo[1,2-a]pyridin-2-yl}methanone], the EC50 was determined as 1.84 µM in assay [1] (setting [3]), 0.00913 µM in assay [1] (setting [4]) and 0.258 µM in assay [2].

For `COc1cccnc1-c1cc([C@@H](C)OC)c2nc(C(=O)N3CC[C@]4(Cc5ccccc5CN4)[C@H](O)C3)cn2c1` [Example 238, [(3R,3′R)-3′-hydroxy-1,4-dihydro-1′H,2H-spiro[isoquinoline-3,4′-piperidin]-1′-yl]{8-[(1R)-1-methoxyethyl]-6-(3-methoxy-2-pyridinyl)imidazo[1,2-a]pyridin-2-yl}methanone], the EC50 turned out to be 0.00127 µM in assay [1] (setting [4]) and 0.00425 µM in assay [2].

In the case of `CO[C@H](C)c1cc(-c2cccnc2C)cn2cc(C(=O)N3CC[C@]4(Cc5ccccc5CN4)[C@H](O)C3)nc12` [Example 239, [(3R,3′R)-3′-hydroxy-1,4-dihydro-1′H,2H-spiro[isoquinoline-3,4′-piperidin]-1′-yl]{8-[(1R)-1-methoxyethyl]-6-(2-methyl-3-pyridinyl)imidazo[1 2-a]pyridin-2-yl}methanone], the EC50 in assay [1] (setting [4]) stood at 0.000613 µM; in assay [2] it was 0.00333 µM.

Source of the values: patent US12441730B2, “PRMT5 inhibitors” (Merck Sharp & Dohme LLC, priority 2019, dated 2025).
